Laboratory results as given in patent US7553862B2, “4-amino-1,5-substituted-1,5-dihydro-imidazol-2-ones” (Hoffmann-La Roche Inc., priority 2006, dated 2009).

Target: T1, mGlyT-1b (Mus musculus, UniProt P28571)
T1 construct: host or cells: Flp-in-CHO
T1 sequence (P28571 1-651 isoform P28571-2): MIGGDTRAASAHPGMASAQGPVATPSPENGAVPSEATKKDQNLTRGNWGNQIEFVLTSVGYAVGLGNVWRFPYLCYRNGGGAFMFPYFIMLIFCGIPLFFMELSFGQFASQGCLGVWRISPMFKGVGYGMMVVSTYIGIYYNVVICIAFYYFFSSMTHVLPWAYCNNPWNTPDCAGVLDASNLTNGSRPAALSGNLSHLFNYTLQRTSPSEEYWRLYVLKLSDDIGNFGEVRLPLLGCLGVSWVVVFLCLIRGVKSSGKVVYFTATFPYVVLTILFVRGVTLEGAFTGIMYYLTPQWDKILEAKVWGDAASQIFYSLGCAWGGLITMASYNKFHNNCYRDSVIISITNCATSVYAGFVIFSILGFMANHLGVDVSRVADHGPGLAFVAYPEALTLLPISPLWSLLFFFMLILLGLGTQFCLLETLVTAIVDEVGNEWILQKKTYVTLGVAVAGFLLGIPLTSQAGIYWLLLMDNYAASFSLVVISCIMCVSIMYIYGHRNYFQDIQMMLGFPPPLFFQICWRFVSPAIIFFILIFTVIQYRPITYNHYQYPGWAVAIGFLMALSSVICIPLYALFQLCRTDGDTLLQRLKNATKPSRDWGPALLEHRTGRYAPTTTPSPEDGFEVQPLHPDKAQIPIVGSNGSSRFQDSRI
Experiment: Glycine uptake inhibition assay (mGlyT-1b)
Format: cell-based
Conditions: [3H]-glycine uptake in Flp-in-CHO cells transfected with mGlyT-1b cDNA; read-out: IC50 (μM) at GlyT-1
Method: DMEM complete medium: Nutrient mixture F-12 (Gibco Life-technologies), fetal bovine serum (FBS) 5%, (Gibco life technologies), Penicillin/Streptomycin1% (Gibco life technologies), Hygromycin 0.6 mg/ml (Gibco life technologies), Glutamine 1 mM Gibco life technologies) Uptake buffer (UB): 150 mM NaCl, 10 mM Hepes-Tris, pH 7.4, 1 mM CaCl2, 2.5 mM KCl, 2.5 mM MgSO4, 10 mM (+) D-glucose.
Flp-in™-CHO (Invitrogen Cat n° R758-07) cells stably transfected with mGlyT1b cDNA.
Glycine Uptake Inhibition Assay (mGlyT-1b)
On day 1 mammalian cells, (Flp-in™-CHO), transfected with mGlyT-1b cDNA, were plated at the density of 40,000 cells/well in complete F-12 medium, without hygromycin in 96-well culture plates. On day 2, the medium was aspirated and the cells were washed twice with uptake buffer (UB). The cells were then incubated for 20 min at 22° C. with either (i) no potential competitor, (ii) 10 mM non-radioactive glycine, (iii) a concentration of a potential inhibitor. A range of concentrations of the potential inhibitor was used to generate data for calculating the concentration of inhibitor resulting in 50% of the effect (e.g. IC50, the concentration of the competitor inhibiting glycine uptake of 50%). A solution was then immediately added containing [^3H]-glycine 60 nM (11-16 Ci/mmol) and 25 μM non-radioactive glycine. The plates were incubated with gentle shaking and the reaction was stopped by aspiration of the mixture and washing (three times) with ice-cold UB. The cells were lysed with scintillation liquid, shaken 3 hours and the radioactivity in the cells was counted using a scintillation counter.

O=C1N=C(NCc2ccccc2)C(c2ccc(F)cc2)N1c1ccc(F)c(Cl)c1 (racemic) [Example 44, Rac-4-Benzylamino-1-(3-chloro-4-fluoro-phenyl)-5-(4-fluoro-phenyl)-1,5-dihydro-imidazol-2-one]
IC50: 0.058 µM

O=C1N=C(NCc2ccc(F)cc2)C(c2ccccc2)N1c1ccc(Cl)c(Cl)c1 (racemic) [Example 51, Rac-1-(3,4-dichloro-phenyl)-4-(4-fluorobenzylamino)-5-phenyl-1,5-dihydro-imidazol-2-one]
IC50: 0.007 µM

O=C1N=C(NCc2ccccc2)C(c2ccccc2)N1c1ccc(Cl)c(Cl)c1 (racemic) [Example 13, Rac-4-benzylamino-1-(3,4-dichloro-phenyl)-5-phenyl-1,5-dihydro-imidazol-2-one]
IC50: 0.076 µM

Cc1ccc(C2C(NCc3ccccc3)=NC(=O)N2c2ccc(Cl)c(Cl)c2)cc1 (racemic) [Example 24, (Rac)-4-benzylamino-1-(3,4-dichloro-phenyl)-5-p-tolyl-1,5-dihydro-imidazol-2-one]
IC50: 0.04 µM

Cc1ccc(C2C(NCc3ccccc3)=NC(=O)N2c2ccc(Cl)c(Cl)c2)cc1C (racemic) [Example 25, Rac-4-benzylamino-1-(3,4-dichloro-phenyl)-5-(3,4-dimethyl-phenyl)-1,5-dihydro-imidazol-2-one]
IC50: 0.057 µM

O=C1N=C(NCC2CCCCC2)C(c2ccccc2)N1c1ccc(Cl)c(Cl)c1 (racemic) [Example 58, (Rac)-4-(cyclohexylmethyl-amino)-1-(3,4-dichloro-phenyl)-5-phenyl-1,5-dihydro-imidazol-2-one]
IC50: 0.024 µM

CC(C)CCNC1=NC(=O)N(c2ccc(Cl)c(Cl)c2)C1c1ccccc1 (racemic) [Example 53, Rac-1-(3,4-dichloro-phenyl)-4-(3-methyl-butylamino)-5-phenyl-1,5-dihydroimidazol-2-one]
IC50: 0.082 µM

O=C1N=C(NCc2ccccc2)[C@@H](c2ccccc2)N1c1ccc(Cl)cc1 (single isomer, unassigned) [Example 50, (−)-4-Benzylamino-1-(4-chloro-phenyl)-5-phenyl-1,5-dihydro-imidazol-2-one]
IC50: 0.062 µM

O=C1N=C(NCc2ccccc2)C(c2ccc(Cl)cc2)N1c1ccc(Cl)c(Cl)c1 (racemic) [Example 28, (Rac)-4-benzylamino-5-(4-chloro-phenyl)-1-(3,4-dichloro-phenyl)-1,5-dihydro-imidazol-2-one]
IC50: 0.035 µM

O=C1N=C(NCc2ccccc2)C(c2ccc(F)cc2)N1c1ccc(Cl)c(Cl)c1 (racemic) [Example 43, (Rac)-4-benzylamino-1-(3,4-dichloro-phenyl)-5-(4-fluoro-phenyl)-1,5-dihydro-imidazol-2-one]
IC50: 0.03 µM

CCCCCCNC1=NC(=O)N(c2ccc(Cl)c(Cl)c2)C1c1ccccc1 (racemic) [Example 57, (Rac)-1-(3,4-dichloro-phenyl)-4-hexylamino-5-phenyl-1,5-dihydro-imidazol-2-one]
IC50: 0.077 µM

O=C1N=C(NCc2ccccc2)C(c2ccccc2)N1c1ccc(Cl)cc1 (racemic) [Example 10, (Rac)-4-benzylamino-1-(4-chloro-phenyl)-5-phenyl-1,5-dihydro-imidazol-2-one]
IC50: 0.062 µM
